Measured values: patent US20260028365A1 (BIOGEN MA INC., priority 2022, published 2026)
pIC50: −log10 of the molar value.

How the values were obtained:
[1] = target: JH2 domain of human Tyk2 (Homo sapiens (Human), UniProt P29597); assay: JH2 Biochemical Assay (TR-FRET probe displacement); format: binding
[2] = target: JAK2 (Homo sapiens (Human), UniProt O60674); assay: pSTAT5 Cell Assay (MSD, TF1 cells); format: cell-based; details: MSD
Summary of the method: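 Serum-starved TF1 cells were pretreated with compound for 1 h (10-point four-fold series from 10 μM), then stimulated with 30 ng/mL IL-3 for 15 min. pSTAT5 in lysates was measured by MSD immunoassay. IC50 came from a 4-parameter logistic fit.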

[3] = target: Tyk2 (Homo sapiens (Human), UniProt P29597); assay: pSTAT4 Cell Assay (MSD, NK92 cells); format: cell-based; details: MSD
Sequence of Tyk2 (P29597 whole entry): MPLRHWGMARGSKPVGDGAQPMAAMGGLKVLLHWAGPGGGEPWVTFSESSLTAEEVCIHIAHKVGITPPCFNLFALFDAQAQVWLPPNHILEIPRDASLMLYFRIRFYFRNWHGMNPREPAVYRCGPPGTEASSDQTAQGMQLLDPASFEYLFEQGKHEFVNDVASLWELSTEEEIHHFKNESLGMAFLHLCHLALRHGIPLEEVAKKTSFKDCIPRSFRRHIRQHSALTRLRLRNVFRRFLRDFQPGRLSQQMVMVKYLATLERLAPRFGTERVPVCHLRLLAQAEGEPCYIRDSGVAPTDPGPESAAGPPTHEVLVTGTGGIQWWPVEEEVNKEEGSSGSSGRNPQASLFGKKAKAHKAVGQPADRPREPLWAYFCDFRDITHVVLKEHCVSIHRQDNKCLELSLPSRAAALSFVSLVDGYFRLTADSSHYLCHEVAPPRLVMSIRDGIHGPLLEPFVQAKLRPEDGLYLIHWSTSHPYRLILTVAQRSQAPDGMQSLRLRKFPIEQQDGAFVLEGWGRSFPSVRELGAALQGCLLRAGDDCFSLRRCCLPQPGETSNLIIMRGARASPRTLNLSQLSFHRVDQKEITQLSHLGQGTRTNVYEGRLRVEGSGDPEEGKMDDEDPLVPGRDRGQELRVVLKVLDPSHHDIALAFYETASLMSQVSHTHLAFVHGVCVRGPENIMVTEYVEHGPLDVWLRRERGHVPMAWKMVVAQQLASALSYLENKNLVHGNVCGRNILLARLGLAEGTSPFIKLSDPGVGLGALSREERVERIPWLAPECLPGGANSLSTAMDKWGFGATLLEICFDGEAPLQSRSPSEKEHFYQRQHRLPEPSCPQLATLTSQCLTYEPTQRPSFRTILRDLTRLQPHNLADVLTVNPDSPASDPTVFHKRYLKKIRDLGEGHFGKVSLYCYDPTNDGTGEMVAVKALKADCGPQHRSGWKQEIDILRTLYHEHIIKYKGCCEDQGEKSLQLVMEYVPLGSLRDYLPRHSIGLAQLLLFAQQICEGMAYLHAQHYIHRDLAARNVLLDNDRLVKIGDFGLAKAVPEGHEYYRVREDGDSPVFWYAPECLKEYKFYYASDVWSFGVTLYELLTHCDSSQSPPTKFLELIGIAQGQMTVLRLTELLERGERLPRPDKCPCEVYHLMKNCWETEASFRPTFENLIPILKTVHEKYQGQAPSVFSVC

[4] = target: JAK1 (Homo sapiens (Human), UniProt P23458); assay: pSTAT3 Cell Assay (MSD, TF1 cells); format: cell-based; details: MSD
Sequence of JAK1 (P23458 whole entry): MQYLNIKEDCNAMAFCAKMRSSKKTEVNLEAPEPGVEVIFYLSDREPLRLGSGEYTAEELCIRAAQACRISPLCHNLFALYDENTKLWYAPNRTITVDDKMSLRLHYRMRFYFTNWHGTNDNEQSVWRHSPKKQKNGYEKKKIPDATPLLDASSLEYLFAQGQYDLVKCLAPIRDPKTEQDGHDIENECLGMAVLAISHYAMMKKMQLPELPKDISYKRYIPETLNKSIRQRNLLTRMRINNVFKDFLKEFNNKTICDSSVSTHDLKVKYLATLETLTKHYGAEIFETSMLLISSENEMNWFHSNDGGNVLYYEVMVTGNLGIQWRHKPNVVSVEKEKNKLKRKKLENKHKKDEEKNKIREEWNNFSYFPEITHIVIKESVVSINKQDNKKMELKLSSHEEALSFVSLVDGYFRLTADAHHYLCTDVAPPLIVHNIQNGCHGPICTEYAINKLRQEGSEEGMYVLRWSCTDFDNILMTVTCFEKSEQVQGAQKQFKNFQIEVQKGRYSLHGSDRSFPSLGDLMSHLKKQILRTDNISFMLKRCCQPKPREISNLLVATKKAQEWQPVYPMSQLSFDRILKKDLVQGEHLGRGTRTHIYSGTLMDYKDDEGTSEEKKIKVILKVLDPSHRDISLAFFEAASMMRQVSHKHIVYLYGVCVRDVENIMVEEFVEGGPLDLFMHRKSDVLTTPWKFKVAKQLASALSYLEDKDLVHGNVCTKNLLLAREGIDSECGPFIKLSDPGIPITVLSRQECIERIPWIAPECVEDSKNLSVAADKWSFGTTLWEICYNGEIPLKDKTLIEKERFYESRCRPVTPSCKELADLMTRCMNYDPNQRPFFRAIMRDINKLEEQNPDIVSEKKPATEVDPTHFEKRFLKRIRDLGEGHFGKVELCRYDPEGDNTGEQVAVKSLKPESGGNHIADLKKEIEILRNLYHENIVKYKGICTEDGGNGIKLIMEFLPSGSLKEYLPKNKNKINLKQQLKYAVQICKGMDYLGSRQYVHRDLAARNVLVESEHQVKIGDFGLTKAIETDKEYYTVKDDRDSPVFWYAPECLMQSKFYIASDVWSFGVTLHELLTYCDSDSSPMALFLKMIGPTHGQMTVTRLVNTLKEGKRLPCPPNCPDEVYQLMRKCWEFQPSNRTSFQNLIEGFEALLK
Summary of the method: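 IC50 values derive from 4-parameter logistic fits of normalized pSTAT3 signal, measured by MSD with anti-STAT3 antibodies. TF1 cells, serum-starved beforehand, received compound for 1 hour (top concentration 10 μM, four-fold steps, 10 points) before a 15-minute IL-6 (30 ng/mL) stimulus.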

[5] = TR-FRET probe displacement, JH2 domain of human Tyk2
[6] = JH2 domain of human Tyk2, TR-FRET probe displacement

Sequence of JAK2 (O60674 whole entry): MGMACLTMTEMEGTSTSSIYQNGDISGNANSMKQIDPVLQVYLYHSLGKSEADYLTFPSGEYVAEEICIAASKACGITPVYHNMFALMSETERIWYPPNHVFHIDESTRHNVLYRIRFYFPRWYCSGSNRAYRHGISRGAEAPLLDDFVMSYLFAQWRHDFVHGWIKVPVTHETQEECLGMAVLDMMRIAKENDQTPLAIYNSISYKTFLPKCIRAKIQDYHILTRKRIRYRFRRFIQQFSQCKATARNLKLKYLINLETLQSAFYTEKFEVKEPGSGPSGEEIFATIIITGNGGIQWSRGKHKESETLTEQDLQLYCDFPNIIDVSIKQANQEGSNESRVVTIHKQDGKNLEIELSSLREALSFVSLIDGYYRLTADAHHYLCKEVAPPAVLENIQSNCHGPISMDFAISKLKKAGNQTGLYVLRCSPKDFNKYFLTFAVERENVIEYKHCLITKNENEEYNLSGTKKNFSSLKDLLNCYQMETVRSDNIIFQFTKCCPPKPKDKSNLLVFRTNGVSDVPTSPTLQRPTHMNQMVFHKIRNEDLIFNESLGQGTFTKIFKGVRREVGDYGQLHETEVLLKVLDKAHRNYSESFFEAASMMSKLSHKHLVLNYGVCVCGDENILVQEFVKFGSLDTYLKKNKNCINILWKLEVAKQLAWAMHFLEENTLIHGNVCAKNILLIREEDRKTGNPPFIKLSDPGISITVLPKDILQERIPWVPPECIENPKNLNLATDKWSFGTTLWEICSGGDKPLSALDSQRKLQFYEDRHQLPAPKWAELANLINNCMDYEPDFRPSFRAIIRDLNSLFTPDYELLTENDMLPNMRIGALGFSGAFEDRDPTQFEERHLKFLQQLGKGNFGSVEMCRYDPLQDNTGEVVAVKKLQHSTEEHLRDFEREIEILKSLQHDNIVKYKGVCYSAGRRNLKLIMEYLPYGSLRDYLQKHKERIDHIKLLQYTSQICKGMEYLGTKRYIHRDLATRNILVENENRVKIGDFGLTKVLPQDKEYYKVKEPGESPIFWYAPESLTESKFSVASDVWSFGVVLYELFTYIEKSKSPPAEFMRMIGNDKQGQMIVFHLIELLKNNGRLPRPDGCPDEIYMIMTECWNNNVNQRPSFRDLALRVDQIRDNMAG
Sequence of JH2 domain of human Tyk2 (P29597 575-876): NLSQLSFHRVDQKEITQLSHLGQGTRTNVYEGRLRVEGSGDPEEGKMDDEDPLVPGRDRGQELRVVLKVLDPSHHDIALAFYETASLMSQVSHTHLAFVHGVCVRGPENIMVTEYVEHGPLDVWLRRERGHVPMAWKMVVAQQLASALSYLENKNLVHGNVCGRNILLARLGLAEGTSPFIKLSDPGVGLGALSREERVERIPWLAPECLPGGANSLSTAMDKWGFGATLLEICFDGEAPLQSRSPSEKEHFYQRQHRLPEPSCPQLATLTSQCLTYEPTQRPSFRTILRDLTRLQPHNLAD

| SMILES | pIC50 [1, 5] | pIC50 ([2]; IL-3 stimulation) | pIC50 [3] | pIC50 ([4]; IL-6 stimulation) | pIC50 [1, 6] | pIC50 ([2]; IL-3 stimulated) | pIC50 ([4]; IL-6 stimulated) |
| --- | --- | --- | --- | --- | --- | --- | --- |
| [2H]C([2H])([2H])C([2H])([2H])Oc1cnc(NC(C)=O)cc1Nc1cc(C(C)C)nc(C(C)(F)F)n1 [Example 362, N-(4-((2-(1,1-difluoroethyl)-6-isopropylpyrimidin-4-yl)amino)-5-(ethoxy-d5)pyridin-2-yl)acetamide] | ≥ 8.00 | ≤ 6.00 | 7.00 to 8.00 | ≤ 6.00 |  |  |  |
| [2H]C([2H])(C)Oc1cnc(NC(C)=O)cc1Nc1cc(C(C)C)nc(C(C)(F)F)n1 [Example 364, N-(4-((2-(1,1-difluoroethyl)-6-isopropylpyrimidin-4-yl)amino)-5-(ethoxy-1,1-d2)pyridin-2-yl)acetamide] | ≥ 8.00 | ≤ 6.00 | 7.00 to 8.00 | ≤ 6.00 |  |  |  |
| COCCOc1cnc(NC(C)=O)cc1Nc1cc(C)nc(C(C)(C)F)n1 [Example 406, N-(4-((2-(2-fluoropropan-2-yl)-6-methylpyrimidin-4-yl)amino)-5-(2-methoxyethoxy)pyridin-2-yl)acetamide] |  |  | ≥ 8.00 |  | ≥ 8.00 | ≤ 6.00 | ≤ 6.00 |
| CC(=O)Nc1cc(Nc2cc(C)nc(C(C)(F)F)n2)c(OCC2COC(C)(C)CO2)cn1 (stereo not shown) [Example 430, N-(4-((2-(1,1-difluoroethyl)-6-methylpyrimidin-4-yl)amino)-5-((5,5-dimethyl-1,4-dioxan-2-yl)methoxy)pyridin-2-yl)acetamide] |  |  | 7.00 to 8.00 |  | ≥ 8.00 | ≤ 6.00 | ≤ 6.00 |
| CC(=O)Nc1cc(Nc2cc(OC3CC3)nc(C(C)(F)F)n2)c(OCC2COCCO2)cn1 (stereo not shown) [Example 445, N-(5-((1,4-dioxan-2-yl)methoxy)-4-((6-cyclopropoxy-2-(1,1-difluoroethyl)pyrimidin-4-yl)amino)pyridin-2-yl)acetamide] |  |  | ≥ 8.00 |  | ≥ 8.00 | ≤ 6.00 | ≤ 6.00 |
| COCCOc1cnc(NC(C)=O)cc1Nc1cc(OC2CC2)nc(C(C)(C)F)n1 [Example 446, N-(4-((6-cyclopropoxy-2-(2-fluoropropan-2-yl)pyrimidin-4-yl)amino)-5-(2-methoxyethoxy)pyridin-2-yl)acetamide] |  |  | ≥ 8.00 |  | ≥ 8.00 | ≤ 6.00 | ≤ 6.00 |
| CC(=O)Nc1cc(Nc2cc(C)nc(C(C)(F)F)n2)c(O)cn1 [Example 486, N-(4-((2-(1,1-difluoroethyl)-6-methylpyrimidin-4-yl)amino)-5-hydroxypyridin-2-yl)acetamide] |  |  | ≤ 6.00 |  | 7.00 to 8.00 | ≤ 6.00 | ≤ 6.00 |
| [2H]C([2H])([2H])C([2H])([2H])Oc1cnc(NC(C)=O)cc1Nc1cc(NC2CCC2)nc(C(C)(F)F)n1 [Example 488, N-(4-((6-(cyclobutylamino)-2-(1,1-difluoroethyl)pyrimidin-4-yl)amino)-5-(ethoxy-d5)pyridin-2-yl)acetamide] |  |  | ≥ 8.00 |  | ≥ 8.00 | ≤ 6.00 | ≤ 6.00 |
| [2H]C([2H])([2H])C([2H])([2H])Oc1cnc(NC(C)=O)cc1Nc1cc(OC2CC2)nc(C(C)(F)F)n1 [Example 489, N-(4-((6-cyclopropoxy-2-(1,1-difluoroethyl)pyrimidin-4-yl)amino)-5-(ethoxy-d5)pyridin-2-yl)acetamide] |  |  | ≥ 8.00 |  | ≥ 8.00 | ≤ 6.00 | ≤ 6.00 |
| CCOc1cnc(NC(C)=O)cc1Nc1cc(OC2CC2)nc(C(C)(F)F)n1 [Example 490, N-(4-((6-cyclopropoxy-2-(1,1-difluoroethyl)pyrimidin-4-yl)amino)-5-ethoxypyridin-2-yl)acetamide] |  |  | ≥ 8.00 |  | ≥ 8.00 | ≤ 6.00 | ≤ 6.00 |
| [2H]C([2H])([2H])C([2H])([2H])Oc1cnc(NC(C)=O)cc1Nc1cc(CC)nc(C(C)(F)F)n1 [Example 515, N-(4-((2-(1,1-difluoroethyl)-6-ethylpyrimidin-4-yl)amino)-5-(ethoxy-d5)pyridin-2-yl)acetamide] |  |  | 7.00 to 8.00 |  | ≥ 8.00 | ≤ 6.00 | ≤ 6.00 |
| COCCOc1ccc(-c2cnc(NC(C)=O)cc2Nc2cc(C)nc(C(C)(F)F)n2)nc1 [Example 522, N-(4′-((2-(1,1-difluoroethyl)-6-methylpyrimidin-4-yl)amino)-5-(2-methoxyethoxy)-[2,3′-bipyridin]-6′-yl)acetamide] |  |  | ≥ 8.00 |  | ≥ 8.00 | ≤ 6.00 | ≤ 6.00 |
| CC(=O)Nc1cc(Nc2cc(C)nc(C(C)(F)F)n2)c(-c2cc3n(n2)CCOC3)cn1 [Example 528, N-(4-((2-(1,1-difluoroethyl)-6-methylpyrimidin-4-yl)amino)-5-(6,7-dihydrO4H-pyrazolo[5,1-c][1,4]oxazin-2-yl)pyridin-2-yl)acetamide] |  |  | ≥ 8.00 |  | ≥ 8.00 | ≤ 6.00 | ≤ 6.00 |
| CC(=O)Nc1cc(Nc2cc(C)nc(C(C)(C)F)n2)c(-c2ccn3ncnc3n2)cn1 [Example 534, N-(5-([1,2,4]triazolo[1,5-a]pyrimidin-5-yl)-4-((2-(2-fluoropropan-2-yl)-6-methylpyrimidin-4-yl)amino)pyridin-2-yl)acetamide] |  |  | ≥ 8.00 |  | ≥ 8.00 | ≤ 6.00 | ≤ 6.00 |
| CC(=O)Nc1cc(Nc2cc(C)nc(C34COC(C3)C4)n2)c(-c2ccn(C)n2)cn1 [Example 552, N-(4-((2-(2-oxabicyclo[2.1.1]hexan-4-yl)-6-methylpyrimidin-4-yl)amino)-5-(1-methyl-1H-pyrazol-3-yl)pyridin-2-yl)acetamide] |  |  | 7.00 to 8.00 |  | ≥ 8.00 | ≤ 6.00 | ≤ 6.00 |
| COCc1ccc(-c2cnc(NC(C)=O)cc2Nc2cc(C)nc(C34COC(C3)C4)n2)nc1 [Example 565, N-(4′-((2-(2-oxabicyclo[2.1.1]hexan-4-yl)-6-methylpyrimidin-4-yl)amino)-5-(methoxymethyl)-[2,3′-bipyridin]-6′-yl)acetamide] |  |  | ≥ 8.00 |  | ≥ 8.00 | ≤ 6.00 | ≤ 6.00 |
| CCc1cc(Nc2cc(NC(C)=O)ncc2-c2ccc(COC)cn2)nc(C23COC(C2)C3)n1 [Example 566, N-(4′-((2-(2-oxabicyclo[2.1.1]hexan-4-yl)-6-ethylpyrimidin-4-yl)amino)-5-(methoxymethyl)-[2,3′-bipyridin]-6′-yl)acetamide] |  |  | ≥ 8.00 |  | ≥ 8.00 | ≤ 6.00 | ≤ 6.00 |
| CC(=O)Nc1cc(Nc2ccnc(C(C)(F)F)n2)c(-c2ccc(F)cn2)cn1 [Example 580, N-(4′-((2-(1,1-difluoroethyl)pyrimidin-4-yl)amino)-5-fluorO[2,3′-bipyridin]-6′-yl)acetamide] |  |  | ≥ 8.00 |  | ≥ 8.00 | ≤ 6.00 | ≤ 6.00 |
| CCc1cc(Nc2cc(NC(C)=O)ncc2-c2coc(C)n2)nc(C(C)(F)F)n1 [Example 584, N-(4-((2-(1,1-difluoroethyl)-6-ethylpyrimidin-4-yl)amino)-5-(2-methyloxazol-4-yl)pyridin-2-yl)acetamide] |  |  | ≥ 8.00 |  | ≥ 8.00 | ≤ 6.00 | ≤ 6.00 |
| CC(=O)Nc1cc(Nc2cc(C)nc(C(C)(F)F)n2)c(-c2ccc(F)cn2)cn1 [Example 594, N-(4′-((2-(1,1-difluoroethyl)-6-methylpyrimidin-4-yl)amino)-5-fluorO[2,3′-bipyridin]-6′-yl)acetamide] |  |  | ≥ 8.00 |  | ≥ 8.00 | ≤ 6.00 | ≤ 6.00 |
| CC(=O)Nc1cc(Nc2cc(C)nc(C(C)(F)F)n2)c(-c2cocn2)cn1 [Example 596, N-(4-((2-(1,1-difluoroethyl)-6-methylpyrimidin-4-yl)amino)-5-(oxazol-4-yl)pyridin-2-yl)acetamide] |  |  | ≥ 8.00 |  | ≥ 8.00 | ≤ 6.00 | ≤ 6.00 |
| CC(=O)Nc1cc(Nc2cc(C)nc(C(C)(F)F)n2)c(-c2cnc(F)cn2)cn1 [Example 598, N-(4-((2-(1,1-difluoroethyl)-6-methylpyrimidin-4-yl)amino)-5-(5-fluoropyrazin-2-yl)pyridin-2-yl)acetamide] |  |  | 7.00 to 8.00 |  | ≥ 8.00 | ≤ 6.00 | ≤ 6.00 |
| CC(=O)Nc1cc(Nc2cc(C)nc(C(C)(F)F)n2)c(-c2ccn(C3CC3)n2)cn1 [Example 602, N-(5-(1-cyclopropyl-1H-pyrazol-3-yl)-4-((2-(1,1-difluoroethyl)-6-methylpyrimidin-4-yl)amino)pyridin-2-yl)acetamide] |  |  | ≥ 8.00 |  | ≥ 8.00 | ≤ 6.00 | ≤ 6.00 |
| CC(=O)Nc1cc(Nc2cc(C)nc(C(C)(F)F)n2)c(-c2cnccn2)cn1 [Example 620, N-(4-((2-(1,1-difluoroethyl)-6-methylpyrimidin-4-yl)amino)-5-(pyrazin-2-yl)pyridin-2-yl)acetamide] |  |  | 7.00 to 8.00 |  | ≥ 8.00 | ≤ 6.00 | ≤ 6.00 |
| COCc1ccc(-c2cnc(NC(C)=O)cc2Nc2cc(C)nc(C(C)(F)F)n2)nc1 [Example 634, N-(4′-((2-(1,1-difluoroethyl)-6-methylpyrimidin-4-yl)amino)-5-(methoxymethyl)-[2,3′-bipyridin]-6′-yl)acetamide] |  |  | ≥ 8.00 |  | ≥ 8.00 | ≤ 6.00 | ≤ 6.00 |
